The text below walks through data of patent publication US20180037595A1, “BENZOXABOROLE COMPOUNDS AND USES THEREOF” (GLAXOSMITHKLINE INTELLECTUAL PROPERTY (NO.2) LIMITED, priority 2015, published 2018).

Molecules are shown by their SMILES. Where two headings read alike, the source gives them in different places.

In one assay the target is Human cyto LeuRS (Homo sapiens, UniProt Q9P2J5). As to the kind of experiment: LeuRS aminoacylation assay, IC50 determination. It counts as biochemical.
The target in another assay is Mtb LeuRS (Mycobacterium tuberculosis, UniProt P9WFV1). The assay is described as follows: LeuRS aminoacylation assay, IC50 determination. It counts as biochemical, M. tuberculosis. Here is the method:
For biochemical analyses an N-terminal six histidine-tagged LeuRS was over-expressed in Escherichia coli which were E. coli codon-optimised (GenScript, Piscataway N.J., USA), from human mitochondria and cytoplasm, and M. tuberculosis. N-terminal six histidine-tagged LeuRS proteins were over-expressed and purified according to Novagen (Madison, Wis., USA) using an E. coli BL21(DE3) T7 RNA polymerase over-expression strain.
Experiments were performed in 96-well microtiter plates, using 80 μL reaction mixtures containing 50 mM HEPES-KOH (pH 8.0), 30 mM MgCl2 30 mM KCl, 13 μM L-[^14C]leucine (306 mCi/mmol, Perkin-Elmer), 15 uM total E. coli tRNA (Roche, Switzerland), 0.02% (w/v) BSA, 1 mM DTT, 0.2 μM LeuRS and 4 mM ATP at 30° C. Reactions were started by the addition of 4 mM ATP. After 7 minutes, reactions were quenched and tRNA was precipitated by the addition of 50 μL of 10% (w/v) TCA and transferred to 96-well nitrocellulose membrane filter plates (Millipore Multiscreen HTS, MSHAN4B50). Each well was then washed three times with 100 μL of 5% TCA. Filter plates were then dried under a heat lamp and the precipitated L-[^14C]leucine tRNALeu were quantified by liquid scintillation counting using a Wallac MicroBeta Trilux model 1450 liquid scintillation counter (PerkinElmer, Waltham, Mass., USA). The only difference was with the human cytoplasmic LeuRS when we used tRNA isolated from Brewer's Yeast (Roche Diagnostics GmbH).
Reactions were initiated by the addition of 4 mM ATP. Reactions were stopped after 7 minutes then precipitated and counted to quantify radioactivity. IC50 values were determined using the Graphpad Prism software package (Graphpad Software Inc. (La Jolla, Calif., USA).

The subject of another assay is HepG2 cells. As to the kind of experiment: HepG2 cytotoxicity assay (resazurin). The following applies: Homo sapiens, HepG2, 48 h, read-out: HepG2 cell 48 h Tox50 (A). It counts as cell-based. On the technique in general: The colour change of resazurin is a common sign of viable cells or microbes.
In the next assay the target is T1, Human mito LeuRS (Homo sapiens, UniProt Q15031).
T1 sequence (Q15031 1-903): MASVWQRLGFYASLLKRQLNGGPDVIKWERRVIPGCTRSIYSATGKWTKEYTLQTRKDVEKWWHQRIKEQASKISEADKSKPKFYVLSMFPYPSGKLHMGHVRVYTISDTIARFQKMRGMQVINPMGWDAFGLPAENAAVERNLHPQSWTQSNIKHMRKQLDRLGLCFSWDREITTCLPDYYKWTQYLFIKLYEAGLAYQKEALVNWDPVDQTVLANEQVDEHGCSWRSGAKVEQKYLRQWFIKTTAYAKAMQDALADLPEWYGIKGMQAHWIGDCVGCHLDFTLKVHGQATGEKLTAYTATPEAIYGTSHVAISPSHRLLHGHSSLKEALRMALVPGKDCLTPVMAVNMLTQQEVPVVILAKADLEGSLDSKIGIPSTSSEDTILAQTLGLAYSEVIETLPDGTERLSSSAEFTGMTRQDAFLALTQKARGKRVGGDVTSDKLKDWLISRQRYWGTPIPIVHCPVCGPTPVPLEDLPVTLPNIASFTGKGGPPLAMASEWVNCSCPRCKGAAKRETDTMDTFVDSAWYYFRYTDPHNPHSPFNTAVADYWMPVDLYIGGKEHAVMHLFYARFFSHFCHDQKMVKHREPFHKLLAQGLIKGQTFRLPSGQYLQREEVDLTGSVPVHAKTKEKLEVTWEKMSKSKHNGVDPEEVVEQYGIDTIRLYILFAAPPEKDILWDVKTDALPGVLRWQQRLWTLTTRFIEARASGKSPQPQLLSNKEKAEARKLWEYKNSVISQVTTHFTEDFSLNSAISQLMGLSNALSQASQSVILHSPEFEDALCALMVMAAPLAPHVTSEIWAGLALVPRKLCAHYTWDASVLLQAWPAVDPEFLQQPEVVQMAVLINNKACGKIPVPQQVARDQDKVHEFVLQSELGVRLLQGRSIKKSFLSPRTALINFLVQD
The assay is described as follows: LeuRS aminoacylation assay, IC50 determination. It counts as biochemical.

A further assay deals with P. aeruginosa PA01. As to the kind of experiment: General antimicrobial activity assay (CLSI broth microdilution). Conditions: Pseudomonas aeruginosa, PA01, read-out: MIC: P. aeruginosa PA01. Format: cell-based. Here is the method: (§1) Whole-cell antimicrobial activity was determined by broth microdilution using the Clinical and Laboratory Standards Institute (CLSI) recommended procedure, Document M7-A7, “Methods for Dilution Susceptibility Tests for Bacteria that Grow Aerobically”.

Another assay deals with E. coli K12 tolC::Tn10. The assay is described as above. The following applies: Escherichia coli, read-out: MIC: E. coli K12 tolC::Tn10. Format: cell-based. Here is the method:
as §1

The next assay deals with E. coli K12. Described as above. It counts as cell-based. Conditions: Escherichia coli, K12, read-out: MIC: E. coli K12. Here is the method:
as §1

The subject of the next assay is A. baumannii ATCC 17978. The assay is described as above. It counts as cell-based. Conditions: Acinetobacter baumannii, ATCC17978, read-out: MIC: A. baumannii ATCC 17978. As to the method:
as §1

Assay [1] concerns M. tuberculosis clinical isolates. The assay is described as follows: MIC against clinical strains (BACTEC MGIT 960 System). It counts as cell-based. Conditions: Mycobacterium tuberculosis, nearly all of the clinical isolate strains of Tables 2A-2D.
Assay [2] has as its system M. tuberculosis standard strain Mtb H37Rv. The assay is described as follows: MIC determination against mycobacteria (resazurin microtiter assay). Format: cell-based, Mycobacterium tuberculosis.

One may read the MIC as the smallest concentration in the dilution series that meets the test's criterion for growth inhibition.

Mtb LeuRS, sequence (P9WFV1 whole entry): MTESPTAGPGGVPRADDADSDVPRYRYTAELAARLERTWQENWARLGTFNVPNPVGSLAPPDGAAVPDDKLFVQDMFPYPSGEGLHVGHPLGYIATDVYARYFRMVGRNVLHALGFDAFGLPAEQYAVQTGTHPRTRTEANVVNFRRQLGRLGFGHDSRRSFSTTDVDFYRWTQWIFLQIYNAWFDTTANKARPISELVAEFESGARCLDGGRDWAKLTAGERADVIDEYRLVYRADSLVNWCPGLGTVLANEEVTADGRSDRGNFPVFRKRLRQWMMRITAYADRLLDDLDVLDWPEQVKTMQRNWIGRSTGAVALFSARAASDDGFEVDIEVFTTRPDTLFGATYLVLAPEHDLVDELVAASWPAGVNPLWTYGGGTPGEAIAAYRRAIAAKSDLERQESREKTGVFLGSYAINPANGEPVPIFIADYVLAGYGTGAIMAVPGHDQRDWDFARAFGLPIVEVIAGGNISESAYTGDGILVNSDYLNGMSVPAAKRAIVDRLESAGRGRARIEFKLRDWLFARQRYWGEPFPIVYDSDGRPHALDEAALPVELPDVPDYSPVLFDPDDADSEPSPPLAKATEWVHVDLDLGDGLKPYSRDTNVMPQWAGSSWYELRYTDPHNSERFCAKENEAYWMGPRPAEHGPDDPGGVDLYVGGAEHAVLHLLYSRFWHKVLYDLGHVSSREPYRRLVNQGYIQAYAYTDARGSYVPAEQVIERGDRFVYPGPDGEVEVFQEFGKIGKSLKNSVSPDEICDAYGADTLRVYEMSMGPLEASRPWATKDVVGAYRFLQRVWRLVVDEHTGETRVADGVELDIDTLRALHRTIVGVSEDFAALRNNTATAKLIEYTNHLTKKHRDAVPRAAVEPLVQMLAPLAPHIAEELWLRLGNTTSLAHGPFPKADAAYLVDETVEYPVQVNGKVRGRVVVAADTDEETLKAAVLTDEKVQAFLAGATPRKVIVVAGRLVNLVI
Human cyto LeuRS, sequence (Q9P2J5 whole entry): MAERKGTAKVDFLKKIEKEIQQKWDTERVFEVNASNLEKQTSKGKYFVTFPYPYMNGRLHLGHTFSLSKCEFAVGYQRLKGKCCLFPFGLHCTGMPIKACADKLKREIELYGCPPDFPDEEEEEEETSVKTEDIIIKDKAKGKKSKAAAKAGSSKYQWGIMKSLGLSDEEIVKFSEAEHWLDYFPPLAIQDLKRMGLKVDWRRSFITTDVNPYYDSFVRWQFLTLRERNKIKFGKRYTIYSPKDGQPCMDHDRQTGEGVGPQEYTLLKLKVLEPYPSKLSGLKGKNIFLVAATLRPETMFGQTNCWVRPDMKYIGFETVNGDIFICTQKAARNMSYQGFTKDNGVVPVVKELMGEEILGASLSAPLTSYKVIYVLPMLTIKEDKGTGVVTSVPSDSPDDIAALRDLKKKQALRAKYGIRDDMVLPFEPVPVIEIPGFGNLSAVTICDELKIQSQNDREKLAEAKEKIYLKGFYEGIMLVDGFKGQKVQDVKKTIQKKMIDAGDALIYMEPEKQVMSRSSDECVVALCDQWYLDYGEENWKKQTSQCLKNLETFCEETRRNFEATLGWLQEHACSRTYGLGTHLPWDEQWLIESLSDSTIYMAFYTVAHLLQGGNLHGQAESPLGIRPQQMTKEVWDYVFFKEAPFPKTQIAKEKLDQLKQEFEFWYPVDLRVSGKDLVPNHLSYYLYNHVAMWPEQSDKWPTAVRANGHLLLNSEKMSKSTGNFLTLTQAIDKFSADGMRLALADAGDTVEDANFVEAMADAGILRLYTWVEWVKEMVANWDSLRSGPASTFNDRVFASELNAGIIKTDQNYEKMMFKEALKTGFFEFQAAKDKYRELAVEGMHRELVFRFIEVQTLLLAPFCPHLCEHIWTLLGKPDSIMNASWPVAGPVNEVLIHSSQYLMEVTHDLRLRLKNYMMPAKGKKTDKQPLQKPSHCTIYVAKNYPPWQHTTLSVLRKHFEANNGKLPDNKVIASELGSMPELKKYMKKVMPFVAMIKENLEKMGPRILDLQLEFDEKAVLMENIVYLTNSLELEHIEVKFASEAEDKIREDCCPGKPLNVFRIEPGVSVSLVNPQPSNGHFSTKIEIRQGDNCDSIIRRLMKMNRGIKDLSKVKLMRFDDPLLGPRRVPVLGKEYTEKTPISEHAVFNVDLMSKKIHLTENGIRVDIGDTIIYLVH

Consider `Cl.NC[C@H]1OB2OCCOc3ccc(Br)c1c32` [Example 2, (S)-(3-bromo-7,8-dihydro-2H-1,6,9-trioxa-9a-borabenzo[cd]azulen-2-yl)methanamine hydrochloride], for which the IC50 is 118 µM against Human cyto LeuRS; 0.115 µM at Mtb LeuRS (read-out: Mtb LeuRS IC50); 0.13 µM at Mtb LeuRS (said to be sub-micromolar, read-out: IC50 values against M. tuberculosis); 292 µM with HepG2 cells; over 300 µM against Human mito LeuRS. Moreover, the minimum inhibitory concentration (MIC) in the assay with P. aeruginosa PA01 is 64 µg/mL; with E. coli K12 tolC::Tn10, 64 µg/mL; with E. coli K12, 64 µg/mL; with A. baumannii ATCC 17978, 64 µg/mL; in [1] it was under 0.1 µM; in assay [2] (Mycobacterium tuberculosis, H37RV, read-out: Mtb H37Rv MIC (B)) it was under 0.1 µM. The “Selectivity Index (A/B)” value in [2] (HepG2 cell 48 h Tox50 (A) / Mtb H37Rv MIC (B)) came to 4177. For the same molecule, the “Mtb H37Rv MIC (B)” value in assay [2] (listed as EXAMPLE 2 G2-Br, hydrochloride) came to 0.07 µM.
